Measured values from PubChem BioAssay (NCI).
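Grown in 96-well plates, cells were treated for 48 hours with each compound at five concentrations. Insufficient inhibition: endpoint recorded as highest concentration tested. TGI is the concentration that stops growth completely.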

Legend:
Assay in all cases: DTP human tumour cell line panel, 48 h
[1] = system: A498 renal
[2] = system: A549 NSCLC
[3] = system: ACHN renal
[4] = system: BT-549 breast
[5] = system: CAKI-1 renal
[6] = system: CCRF-CEM leukemia
[7] = system: COLO 205 colon
[8] = system: DU-145 prostate
[9] = system: EKVX NSCLC
[10] = system: HCC-2998 colon
[11] = system: HCT-116 colon
[12] = system: HCT-15 colon
[13] = system: HL-60(TB) leukemia
[14] = system: HOP-62 NSCLC
[15] = system: HOP-92 NSCLC
[16] = system: HS 578T breast
[17] = system: HT29 colon
[18] = system: IGROV1 ovarian
[19] = system: K-562 leukemia
[20] = system: KM12 colon
[21] = system: LOX IMVI melanoma
[22] = system: M14 melanoma
[23] = system: MALME-3M melanoma
[24] = system: MCF7 breast
[25] = system: MDA-MB-231 breast
[26] = system: MDA-MB-435
[27] = system: MOLT-4 leukemia
[28] = system: NCI-H23 lung
[29] = system: NCI-H460 lung
[30] = system: NCI-H522 lung
[31] = system: NCI/ADR-RES ovarian
[32] = system: OVCAR-3 ovarian
[33] = system: OVCAR-4 ovarian
[34] = system: OVCAR-5 ovarian
[35] = system: OVCAR-8 ovarian
[36] = system: PC-3 prostate
[37] = system: RPMI-8226 leukemia
[38] = system: RXF 393 renal
[39] = system: SF-268 CNS
[40] = system: SF-295 CNS
[41] = system: SF-539 CNS
[42] = system: SK-MEL-2 melanoma
[43] = system: SK-MEL-28 melanoma
[44] = system: SK-MEL-5 melanoma
[45] = system: SK-OV-3 ovarian
[46] = system: SN12C renal
[47] = system: SNB-19 CNS
[48] = system: SW-620 colon
[49] = system: T-47D breast
[50] = system: TK-10 renal
[51] = system: U251 CNS
[52] = system: UACC-257 melanoma
[53] = system: UACC-62 melanoma
[54] = system: UO-31 renal
[55] = system: 786-0 renal
[56] = system: NCI-H226 lung
[57] = system: SNB-75 CNS
[58] = system: SR leukemia

`CNC(C)C(O)c1ccc2oc3cc(=O)c4ccccc4c-3nc2c1` (stereo not drawn) was tested, and the TGI [1] was 50.6 µM, the TGI [2] was > 100 µM and the TGI [3] was 57.9 µM. For the same molecule, the TGI [4] was > 100 µM, the TGI [5] was 29.6 µM and the TGI [6] was 47 µM. The TGI [7] was > 100 µM, the TGI [8] was 18 µM and the TGI [9] was > 100 µM. The TGI [10] was > 100 µM, the TGI [11] was 21.8 µM and the TGI [12] was > 100 µM. The TGI [13] was > 100 µM, the TGI [14] was 18.1 µM and the TGI [15] was > 100 µM. For the same molecule, the TGI [16] was 8.48 µM, the TGI [17] was > 100 µM and the TGI [18] was > 100 µM. For the same molecule, the TGI [19] was > 100 µM, the TGI [20] was 49.8 µM and the TGI [21] was 26.7 µM. For the same molecule, the TGI [22] was 16.1 µM, the TGI [23] was 19.9 µM and the TGI [24] was 41.7 µM. The TGI [25] was > 100 µM, the TGI [26] was 3.54 µM and the TGI [27] was 54.8 µM. For the same molecule, the TGI [28] was > 100 µM, the TGI [29] was 61.4 µM and the TGI [30] was 33.7 µM. The TGI [31] was > 100 µM, the TGI [32] was 28.7 µM and the TGI [33] was 36.6 µM. The TGI [34] was > 100 µM, the TGI [35] was > 100 µM and the TGI [36] was > 100 µM. The TGI [37] was > 100 µM, the TGI [38] was 84.8 µM and the TGI [39] was > 100 µM. The TGI [40] was 15.6 µM, the TGI [41] was 5.99 µM and the TGI [42] was 64.2 µM. For the same molecule, the TGI [43] was 27.6 µM, the TGI [44] was 6.68 µM and the TGI [45] was > 100 µM. For the same molecule, the TGI [46] was 25.1 µM, the TGI [47] was > 100 µM and the TGI [48] was > 100 µM. For the same molecule, the TGI [49] was 98.4 µM, the TGI [50] was > 100 µM and the TGI [51] was 22.4 µM. It also gave a TGI [52] of 33.4 µM, a TGI [53] of 14.3 µM and a TGI [54] of 67 µM.

With `N/C(=N\S(=O)(=O)c1ccc(-c2ncccc2C(F)(F)F)s1)Nc1ccc(Cl)cc1` the TGI [55] was 34.7 µM, the TGI [1] was 30.7 µM and the TGI [2] was 36.7 µM. The TGI [3] was 30 µM, the TGI [4] was 29 µM and the TGI [7] was > 100 µM. The TGI [8] was 36.4 µM, the TGI [9] was 19 µM and the TGI [11] was 32.5 µM. For the same molecule, the TGI [12] was 32.2 µM, the TGI [13] was 46.4 µM and the TGI [14] was 38.3 µM. The TGI [15] was 30 µM, the TGI [16] was 40.5 µM and the TGI [17] was 39.3 µM. For the same molecule, the TGI [18] was 27.8 µM, the TGI [19] was 63.8 µM and the TGI [20] was 81.2 µM. The TGI [21] was 29.8 µM, the TGI [22] was 31.2 µM and the TGI [23] was 30.1 µM. The TGI [24] was 30 µM, the TGI [25] was 27.2 µM and the TGI [27] was 53.7 µM. The TGI [56] was 41.4 µM, the TGI [28] was 27.5 µM and the TGI [29] was 25.9 µM. It also gave a TGI [30] of 23.6 µM, a TGI [31] of 41.1 µM and a TGI [32] of 38.7 µM. For the same molecule, the TGI [33] was 42.9 µM, the TGI [34] was 44 µM and the TGI [35] was 29.7 µM. For the same molecule, the TGI [36] was 25.8 µM, the TGI [37] was > 100 µM and the TGI [38] was 41.5 µM. For the same molecule, the TGI [39] was 31.5 µM, the TGI [40] was 31.6 µM and the TGI [41] was > 100 µM. For the same molecule, the TGI [42] was 29.3 µM, the TGI [43] was 34.4 µM and the TGI [44] was > 100 µM. The TGI [45] was 33.7 µM, the TGI [46] was 38.3 µM and the TGI [47] was 34.4 µM. For the same molecule, the TGI [57] was 40 µM, the TGI [58] was 46.4 µM and the TGI [48] was 35.6 µM. For the same molecule, the TGI [49] was 48.3 µM, the TGI [50] was 26.2 µM and the TGI [51] was 25.8 µM. It also gave a TGI [52] of 14 µM, a TGI [53] of 23.3 µM and a TGI [54] of 38.4 µM.
